Measured values taken from patent publication US20230113037A1 (Bayer Aktiengesellschaft, priority 2019, published 2023).

Tests used:
[1] = target: T1, AHR (Homo sapiens, UniProt P35869); experiment: In vitro assay 1: antagonism in human cell line (AHR transactivation, firefly luciferase reporter, kynurenic acid prestimulated); assay type: cell-based; conditions: AHR Antagonism Human IC50 [M], firefly luciferase reporter
T1 construct: U87 MG glioblastoma cells (ATCC #HTB-14) endogenously expressing AHR; endogenous in cells; host or cells: U87 MG glioblastoma cells (ATCC #HTB-14)
T1 sequence (P35869 11-848): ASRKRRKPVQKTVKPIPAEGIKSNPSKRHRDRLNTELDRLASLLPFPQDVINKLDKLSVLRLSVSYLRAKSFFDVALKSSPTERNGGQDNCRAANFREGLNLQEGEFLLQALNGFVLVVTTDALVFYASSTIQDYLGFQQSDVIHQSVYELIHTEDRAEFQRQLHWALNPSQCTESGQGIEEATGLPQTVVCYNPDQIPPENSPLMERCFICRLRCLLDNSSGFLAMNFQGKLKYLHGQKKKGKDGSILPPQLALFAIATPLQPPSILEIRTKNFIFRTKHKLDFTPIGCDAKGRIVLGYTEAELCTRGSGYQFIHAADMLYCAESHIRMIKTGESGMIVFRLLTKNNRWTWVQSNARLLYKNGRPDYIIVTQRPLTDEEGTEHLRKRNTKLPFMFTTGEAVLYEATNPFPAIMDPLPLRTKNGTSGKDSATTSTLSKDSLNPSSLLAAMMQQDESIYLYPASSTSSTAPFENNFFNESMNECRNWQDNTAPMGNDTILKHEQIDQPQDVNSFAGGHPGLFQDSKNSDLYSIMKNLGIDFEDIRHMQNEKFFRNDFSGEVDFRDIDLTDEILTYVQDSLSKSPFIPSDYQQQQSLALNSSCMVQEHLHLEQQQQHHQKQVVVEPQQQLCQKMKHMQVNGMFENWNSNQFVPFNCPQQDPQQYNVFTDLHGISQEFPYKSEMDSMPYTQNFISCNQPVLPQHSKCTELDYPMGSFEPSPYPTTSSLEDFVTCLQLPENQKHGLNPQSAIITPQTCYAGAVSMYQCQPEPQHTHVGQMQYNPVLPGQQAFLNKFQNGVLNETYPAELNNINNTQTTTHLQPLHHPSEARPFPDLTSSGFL
How it was run: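 U87 MG glioblastoma cells with endogenous AHR, stably carrying a DRE-driven firefly luciferase reporter and constitutive Renilla reporter, prestimulated with kynurenic acid before compound addition. Firefly and Renilla read by dual luciferase; Renilla flags toxicity; normalized to controls (150 μM kynurenic acid + 5 μM staurosporine as full inhibition); repeat values averaged or median.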

[2] = target: T2, AHR (Mus musculus, UniProt P30561); experiment: In vitro assay 3: antagonism in mouse cell line (AHR transactivation, firefly luciferase reporter, kynurenic acid prestimulated); assay type: cell-based; conditions: Hepa 1c1c7 cells, 200 μM kynurenic acid, 20 hours, firefly luciferase reporter, read-out: AHR Antagonism Mouse IC50
T2 sequence (P30561 1-848 P471L/N533S/M589L): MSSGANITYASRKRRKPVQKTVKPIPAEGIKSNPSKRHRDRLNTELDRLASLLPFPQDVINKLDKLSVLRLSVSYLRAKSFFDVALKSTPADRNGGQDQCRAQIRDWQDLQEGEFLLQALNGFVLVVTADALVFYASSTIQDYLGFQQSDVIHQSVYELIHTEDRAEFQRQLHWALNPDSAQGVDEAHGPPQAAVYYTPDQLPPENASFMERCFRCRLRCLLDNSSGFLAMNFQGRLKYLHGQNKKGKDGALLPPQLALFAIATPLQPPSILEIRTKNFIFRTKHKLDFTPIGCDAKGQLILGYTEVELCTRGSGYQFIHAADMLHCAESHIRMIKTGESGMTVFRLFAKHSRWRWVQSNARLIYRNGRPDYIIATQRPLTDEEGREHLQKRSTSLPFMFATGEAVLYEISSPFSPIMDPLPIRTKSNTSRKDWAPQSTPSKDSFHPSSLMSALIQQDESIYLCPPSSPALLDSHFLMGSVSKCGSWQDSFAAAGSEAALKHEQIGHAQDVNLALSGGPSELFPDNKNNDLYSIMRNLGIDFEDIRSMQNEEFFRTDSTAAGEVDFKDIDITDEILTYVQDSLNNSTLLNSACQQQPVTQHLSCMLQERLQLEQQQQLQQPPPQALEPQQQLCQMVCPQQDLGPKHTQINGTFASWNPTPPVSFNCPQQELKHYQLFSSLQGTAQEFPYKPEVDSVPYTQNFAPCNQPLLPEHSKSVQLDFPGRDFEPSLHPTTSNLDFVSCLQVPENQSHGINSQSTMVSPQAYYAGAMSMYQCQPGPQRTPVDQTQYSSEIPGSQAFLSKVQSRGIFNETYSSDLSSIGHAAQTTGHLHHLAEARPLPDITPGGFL
How it was run: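 Mouse cells stably carrying a DRE-driven, AHR-inducible firefly luciferase reporter were prestimulated with the endogenous agonist kynurenic acid before compound addition. Luciferase activity was measured by luminescence and normalized to positive and negative controls, with cells lacking kynurenic acid serving as full-inhibition control. Repeat tests are reported as mean or median.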

SMILES	IC50 [1]	IC50 [2]
CCCCNC(=O)[C@@H](CC)Nc1nc2c(Br)cccc2c2nc(-c3ccc(Cl)cc3OC(F)(F)F)nn12 [Example 814, (2R)-2-({7-bromo-2-[4-chloro-2-(trifluoromethoxy)phenyl][1,2,4]triazolo[1,5-c]quinazolin-5-yl}amino)-N-butylbutanamide]	2.5e-08 M	11 nM
Cc1nn(C)cc1-c1nc2c3cccc(Br)c3nc(N[C@@H]3CCCCNC3=O)n2n1 [Example 815, (3R)-3-{[7-bromo-2-(1,3-dimethyl-1H-pyrazol-4-yl)[1,2,4]triazolo[1,5-c]quinazolin-5-yl]amino}azepan-2-one]	2.78e-10 M	1.6 nM
O=C1NCCCC[C@H]1Nc1nc2c(Cl)cccc2c2nc(-c3cnn(C4CC4)c3)nn12 [Example 816, (3R)-3-{[7-chloro-2-(1-cyclopropyl-1H-pyrazol-4-yl)[1,2,4]triazolo[1,5-c]quinazolin-5-yl]amino}azepan-2-one]	1.05e-09 M	0.99 nM
CC(C)n1cc(-c2nc3c4cccc(Cl)c4nc(N[C@@H]4CCCCNC4=O)n3n2)cn1 [Example 817, (3R)-3-({7-chloro-2-[1-(propan-2-yl)-1H-pyrazol-4-yl][1,2,4]triazolo[1,5-c]quinazolin-5-yl}amino)azepan-2-one]	5.24e-10 M	1.94 nM
CCn1cc(-c2nc3c4cccc(Cl)c4nc(N[C@@H]4CCCCNC4=O)n3n2)cn1 [Example 818, (3R)-3-{[7-chloro-2-(1-ethyl-1H-pyrazol-4-yl)[1,2,4]triazolo[1,5-c]quinazolin-5-yl]amino}azepan-2-one]	6.2e-10 M	2.18 nM
CCn1cc(-c2nc3c4cccc(Cl)c4nc(N[C@@H]4CCCCNC4=O)n3n2)c(C)n1 [Example 819, (3R)-3-{[7-chloro-2-(1-ethyl-3-methyl-1H-pyrazol-4-yl)[1,2,4]triazolo[1,5-c]quinazolin-5-yl]amino}azepan-2-one]	2.31e-10 M	0.385 nM
CC(C)n1cc(-c2nc3c4cccc(C5CC5)c4nc(N[C@@H]4CCCCNC4=O)n3n2)cn1 [Example 820, (3R)-3-({7-cyclopropyl-2-[1-(propan-2-yl)-1H-pyrazol-4-yl][1,2,4]triazolo[1,5-c]quinazolin-5-yl}amino)azepan-2-one]	6.33e-09 M	71.5 nM
Cc1nn(C)cc1-c1nc2c3cccc(Cl)c3nc(N[C@@H]3CCCCNC3=O)n2n1 [Example 821, (3R)-3-{[7-chloro-2-(1,3-dimethyl-1H-pyrazol-4-yl)[1,2,4]triazolo[1,5-c]quinazolin-5-yl]amino}azepan-2-one]	2.98e-10 M	0.739 nM
CC(C)n1cc(-c2nc3c4cccc(Br)c4nc(N[C@@H]4CCCCNC4=O)n3n2)cn1 [Example 822, (3R)-3-({7-bromo-2-[1-(propan-2-yl)-1H-pyrazol-4-yl][1,2,4]triazolo[1,5-c]quinazolin-5-yl}amino)azepan-2-one]	7.23e-10 M	1.68 nM
Cc1c(-c2nc3c4cccc(Br)c4nc(N[C@@H]4CCCCNC4=O)n3n2)cnn1C [Example 823, (3R)-3-{[7-bromo-2-(1,5-dimethyl-1H-pyrazol-4-yl)[1,2,4]triazolo[1,5-c]quinazolin-5-yl]amino}azepan-2-one]	2.13e-09 M	3.01 nM
O=C1NCCCC[C@H]1Nc1nc2c(Br)cccc2c2nc(-c3cnn(C4CCC4)c3)nn12 [Example 824, (3R)-3-{[7-bromo-2-(1-cyclobutyl-1H-pyrazol-4-yl)[1,2,4]triazolo[1,5-c]quinazolin-5-yl]amino}azepan-2-one]	9.98e-10 M	0.845 nM
CCn1cc(-c2nc3c4cccc(Br)c4nc(N[C@@H]4CCCCNC4=O)n3n2)c(C)n1 [Example 825, (3R)-3-{[7-bromo-2-(1-ethyl-3-methyl-1H-pyrazol-4-yl)[1,2,4]triazolo[1,5-c]quinazolin-5-yl]amino}azepan-2-one]	3.72e-10 M	0.475 nM
O=C1NCCCC[C@H]1Nc1nc2c(Br)cccc2c2nc(-c3cnn(CC4CC4)c3)nn12 [Example 826, (3R)-3-({7-bromo-2-[1-(cyclopropylmethyl)-1H-pyrazol-4-yl][1,2,4]triazolo[1,5-c]quinazolin-5-yl}amino)azepan-2-one]	1.77e-09 M	2.26 nM
CN(C)c1cccc2c1nc(N[C@@H]1CCCCNC1=O)n1nc(-c3cnn(C)c3)nc21 [Example 828, (3R)-3-{[7-(dimethyalmino)-2-(1-methyl-1H-pyrazol-4-yl)[1,2,4]triazolo[1,5-c]quinazolin-5-yl]amino}azepan-2-one]	1.78e-07 M	13500 nM
CCn1cc(-c2nc3c4cccc(Br)c4nc(N[C@@H]4CCCCNC4=O)n3n2)cn1 [Example 831, (3R)-3-{[7-bromo-2-(1-ethyl-1H-pyrazol-4-yl)[1,2,4]triazolo[1,5-c]quinazolin-5-yl]amino}azepan-2-one]	8.88e-10 M	1.54 nM
O=C1NCCCC[C@H]1Nc1nc2c(Br)cccc2c2nc(-c3cnn(CC4CCC4)c3)nn12 [Example 832, (3R)-3-({7-bromo-2-[1-(cyclobutylmethyl)-1H-pyrazol-4-yl][1,2,4]triazolo[1,5-c]quinazolin-5-yl}amino)azepan-2-one]	2.58e-09 M	5.68 nM
O=C1NCCCC[C@H]1Nc1nc2c(C(F)(F)F)cccc2c2nc(-c3ccc(Cl)cc3)nn12 [Example 833, (3R)-3-{[2-(4-chlorophenyl)-7-(trifluoromethyl)[1,2,4]triazolo[1,5-c]quinazolin-5-yl]amino}azepan-2-one]	1.12e-09 M	1.27 nM
CCn1cc(-c2nc3c4cccc(F)c4nc(N[C@@H]4CCCCNC4=O)n3n2)cn1 [Example 834, (3R)-3-{[2-(1-ethyl-1H-pyrazol-4-yl)-7-fluoro[1,2,4]triazolo[1,5-c]quinazolin-5-yl]amino}azepan-2-one]	6.25e-09 M	10.7 nM
Cc1c(-c2nc3c4cccc(F)c4nc(N[C@@H]4CCCCNC4=O)n3n2)cnn1C [Example 835, (3R)-3-{[2-(1,5-dimethyl-1H-pyrazol-4-yl)-7-fluoro[1,2,4]triazolo[1,5-c]quinaozlin-5-yl]amino}azepan-2-one]	1.54e-08 M	18.5 nM
CC(C)n1cc(-c2nc3c4cccc(F)c4nc(N[C@@H]4CCCCNC4=O)n3n2)cn1 [Example 836]	4.19e-09 M	4.95 nM
Cn1cc(-c2nc3c4cccc(Br)c4nc(N[C@@H]4CSCCNC4=O)n3n2)cn1 [Example 837, (6S)-6-{[7-bromo-2-(1-methyl-1H-pyrazol-4-yl)[1,2,4]triazolo[1,5-c]quinazolin-5-yl]amino}-1,4-thiazepan-5-one]	7.6e-10 M	1.81 nM
CC(C)n1cc(-c2nc3c4cccc(C(F)(F)F)c4nc(N[C@@H]4CSCCNC4=O)n3n2)cn1 [Example 838, (6S)-6-({2-[1-(propan-2-yl)-1H-pyrazol-4-yl]-7-(trifluoromethyl)[1,2,4]triaozlo[1,5-c]quinazolin-5-yl}amino)-1,4-thiazepan-5-one]	9.63e-10 M	2.02 nM
